Data reported in ChEMBL document CHEMBL5244229, “Thiazole-containing compounds as therapeutic targets for cancer therapy” (Eur J Med Chem, 2020).
Converted amounts (≈) assume the structure as drawn.

Key:
[1] = system: HepG2; assay: Cytotoxicity against human HepG2 cells; assay type: functional, cell-based
[2] = system: MV4-11; assay: Anticancer activity against human MV4-11 cells; assay type: functional, cell-based
[3] = system: HCT-116; assay: Anticancer activity against human HCT-116 cells; assay type: functional, cell-based
[4] = system: HepG2; assay: Anticancer activity against human HepG2 cells; assay type: functional, cell-based
[5] = system: MCF7; assay: Antitumor activity against human MCF7 cells; assay type: functional, cell-based
[6] = system: HepG2; assay: Cytotoxicity against human HepG2 cells assessed as reduction in cell viability incubated for 24 hrs by WST-1 assay; assay type: functional, cell-based; conditions: HepG2, 24 h
[7] = system: MCF7; assay: Anticancer activity against human MCF7 cells; assay type: functional, cell-based
[8] = target: Epidermal growth factor receptor (Homo sapiens, UniProt P00533); assay: Inhibition of EGFR (unknown origin)
[9] = system: HEK293; assay: Antiproliferative activity against human HEK293 cells; assay type: functional
[10] = system: HCT-116; assay: Antiproliferative activity against human HCT-116 cells assessed as reduction in cell viability; assay type: functional, cell-based
[11] = system: A549; assay: Antiproliferative activity against human A549 cells; assay type: functional, cell-based
[12] = system: HeLa; assay: Antiproliferative activity against human HeLa cells assessed as reduction in cell growth after 72 hrs; assay type: functional, cell-based
[13] = system: K562; assay: Cytotoxicity against human K562 cells assessed as reduction in cell viability measured after 48 hrs by MTS assay; assay type: functional, cell-based; conditions: K562, 48 h
[14] = system: HeLa; assay: Cytotoxicity against human HeLa cells assessed as reduction in cell viability measured after 48 hrs by MTS assay; assay type: functional, cell-based
[15] = system: AGS; assay: Cytotoxicity against human AGS cells; assay type: functional, cell-based
[16] = system: SNU-638; assay: Cytotoxicity against human SNU-638 cells; assay type: functional, cell-based
[17] = system: Hep 3B2; assay: Cytotoxicity against human Hep3B cells; assay type: functional, cell-based
[18] = Cytotoxicity against human SNU-216 cells; assay type: functional, cell-based
[19] = system: MKN-74; assay: Cytotoxicity against human MKN-74 cells; assay type: functional, cell-based
[20] = system: SK-HEP1; assay: Cytotoxicity against human SK-HEP1 cells; assay type: functional, cell-based
[21] = system: Colon cell line; assay: Cytotoxicity against human Colon cell line; assay type: functional, cell-based; conditions: Homo sapiens, Colon cell line
[22] = system: MCF7; assay: Cytotoxicity against human MCF7 cells; assay type: functional, cell-based
[23] = system: HeLa; assay: Cytotoxicity against human HeLa cells; assay type: functional, cell-based
[24] = system: HepG2; assay: Cytotoxicity against human HepG2 cells assessed as reduction in cell viability measured after 48 hrs by MTS assay; assay type: functional, cell-based; conditions: HepG2, 48 h
[25] = system: MDA-MB-435; assay: Cytotoxicity against human MDA-MB-435 cells; assay type: functional, cell-based

Chain of Epidermal growth factor receptor (P00533 whole entry): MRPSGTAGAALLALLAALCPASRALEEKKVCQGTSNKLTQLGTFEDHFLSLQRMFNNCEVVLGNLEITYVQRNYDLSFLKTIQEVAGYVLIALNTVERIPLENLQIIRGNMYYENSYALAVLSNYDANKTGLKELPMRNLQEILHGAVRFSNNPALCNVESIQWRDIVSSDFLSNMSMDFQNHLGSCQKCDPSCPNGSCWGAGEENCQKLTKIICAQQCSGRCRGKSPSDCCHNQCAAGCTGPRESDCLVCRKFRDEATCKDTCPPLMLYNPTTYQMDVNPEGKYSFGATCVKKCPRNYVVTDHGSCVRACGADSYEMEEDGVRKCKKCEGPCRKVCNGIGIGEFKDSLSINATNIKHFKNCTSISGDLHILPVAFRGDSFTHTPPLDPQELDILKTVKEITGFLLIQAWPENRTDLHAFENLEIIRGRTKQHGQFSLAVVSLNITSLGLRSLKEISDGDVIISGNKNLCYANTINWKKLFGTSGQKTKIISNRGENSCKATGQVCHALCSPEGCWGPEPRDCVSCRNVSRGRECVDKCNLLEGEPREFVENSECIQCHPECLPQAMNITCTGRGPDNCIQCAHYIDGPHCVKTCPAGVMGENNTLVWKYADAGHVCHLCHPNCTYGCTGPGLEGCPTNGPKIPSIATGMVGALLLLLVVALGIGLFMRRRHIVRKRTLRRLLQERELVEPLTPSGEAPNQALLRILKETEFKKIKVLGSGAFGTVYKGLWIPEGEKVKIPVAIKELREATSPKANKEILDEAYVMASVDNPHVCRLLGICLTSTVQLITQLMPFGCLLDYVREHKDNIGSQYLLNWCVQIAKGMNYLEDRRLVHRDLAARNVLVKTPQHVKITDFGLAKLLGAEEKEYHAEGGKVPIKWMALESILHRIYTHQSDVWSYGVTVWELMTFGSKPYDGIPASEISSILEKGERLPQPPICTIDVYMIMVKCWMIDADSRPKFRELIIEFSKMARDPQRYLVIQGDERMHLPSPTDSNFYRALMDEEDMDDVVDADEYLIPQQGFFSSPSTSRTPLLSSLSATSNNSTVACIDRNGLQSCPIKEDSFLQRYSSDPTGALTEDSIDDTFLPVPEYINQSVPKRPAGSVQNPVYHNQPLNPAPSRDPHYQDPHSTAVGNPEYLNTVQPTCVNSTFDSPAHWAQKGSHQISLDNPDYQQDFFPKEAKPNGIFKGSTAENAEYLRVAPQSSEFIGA

Cc1nc(C(Cl)(Cl)S(=O)(=O)c2ccc(F)cc2)c([N+](=O)[O-])s1
CC50 [1]: < 2500 nM

N#Cc1ccc(S(=O)(=O)Nc2ccc(-c3csc(N/N=C/c4ccc(N(CCCl)CCCl)cc4)n3)cc2)cc1
IC50 [2]: 2170 nM
IC50 [3]: 3.02 µg/mL (≈ 5.04 µM)

C/C(=N\NC(=O)c1sc(-c2ccccc2)nc1C)C1=NN(C)C(/N=N/C(=O)c2sc(-c3ccccc3)nc2-c2ccc(C)cc2)C1 (configuration not stated)
IC50 [4]: 1.61 µg/mL

O=C1N/C(=N/c2ccc(-c3nc4ccccc4o3)cc2)S/C1=C/c1ccc(Cl)cc1
IC50 [5]: 19 nM

C/C(=N/Nc1nc(C)c(/N=N/c2ccccc2)s1)c1sc(N)nc1C
IC50 [6]: 840 nM

C/C(=N/N=c1/[nH]c(-c2ccccc2)c(/N=N/c2ccccc2)s1)[C@H]1CC[C@H]2[C@@H]3CCC4=CC(=O)CC[C@]4(C)[C@H]3CC[C@]12C
IC50 [7]: 5280 nM

Cc1ccc(-c2nc(C(=O)Nc3cccc(Cl)c3)cs2)cc1
IC50 [4]: 11600 nM

CC(C)=NNc1nc(-c2ccc(Cl)cc2)cs1
IC50 [8]: 2000 nM

Cc1nc(C(Cl)(Cl)S(=O)(=O)c2ccc(Br)cc2)c([N+](=O)[O-])s1
CC50 [1]: < 2500 nM

CCCCCCCC(=O)SCC/C=C/[C@@H]1CC(=O)NCc2nc(cs2)C2=N[C@@](C)(CS2)C(=O)N[C@@H](C(C)C)C(=O)O1 [LARGAZOLE]
GI50 [9]: > 100000 nM
IC50 [10]: 390 nM
GI50 [11]: 1460 nM

O=S(=O)(Nc1ccc(-c2csc(N/N=C/c3ccc(N(CCCl)CCCl)cc3)n2)cc1)c1ccc(F)cc1
IC50 [2]: 2170 nM
IC50 [3]: 3.02 µg/mL (≈ 5.1 µM)

COc1ccc(/C=N/Nc2nc(-c3ccccc3)cs2)cc1
IC50 [12]: 11.1 µg/mL (≈ 35.9 µM)

Clc1cccc(Nc2c3ccccc3nc3sc(NCCN4CCCCC4)nc23)c1
IC50 [13]: 5690 nM
IC50 [14]: 5690 nM

C/C=C1\NC(=O)[C@H]([C@@H](C)O)NC(=O)c2csc(n2)-c2ccc(-c3nc(-c4nc(C(=O)N/C(=C/C)C(=O)NC[C@@H](C)O)cs4)cs3)nc2-c2csc(n2)[C@H]([C@@H](C)O)NC(=O)c2csc(n2)[C@H](C(C)(C)O)NC(=O)c2csc1n2
IC50 [1]: 1340 nM
IC50 [15]: 1430 nM
IC50 [16]: 990 nM
IC50 [17]: 2340 nM
IC50 [18]: 7500 nM
IC50 [19]: 11000 nM
IC50 [20]: 2120 nM

C=C(NC(=O)C(=C)NC(=O)c1csc(C2=N[C@@H]3c4csc(n4)[C@H]4NC(=O)c5csc(n5)[C@H]([C@](C)(O)[C@@H](C)O)NC(=O)[C@H]5CSC(=N5)/C(=C/C)NC(=O)[C@H]([C@@H](C)O)NC(=O)c5csc(n5)[C@]3(CC2)NC(=O)[C@H](C)NC(=O)C(=C)NC(=O)[C@H](C)NC(=O)[C@H]([C@@H](C)CC)N[C@@H]2C=Cc3c([C@H](C)O)cc(nc3[C@H]2O)C(=O)O[C@@H]4C)n1)C(N)=O [THIOSTREPTON]
IC50 [1]: 710 nM
IC50 [15]: 400 nM
IC50 [16]: 300 nM
IC50 [17]: 820 nM
IC50 [18]: 410 nM
IC50 [19]: 4200 nM
IC50 [20]: 740 nM

COc1ccc(-c2csc(NC(=O)CN3CCc4ccccc4C3)n2)cc1
LC50 [21]: 28 µg/mL (≈ 73.8 µM)

COc1cc(C(=NC#N)c2csc(-c3ccccc3)n2)cc(OC)c1OC
IC50 [8]: 20 nM

CC(=O)Nc1ccc(NC(=O)/C(C#N)=C2\SC=C(c3ccccc3)N2c2ccccc2)cc1
IC50 [22]: 9.3 µg/mL (≈ 20.6 µM)

COc1cccc2c1C(=O)c1c(O)c3c(c(O)c1C2=O)C[C@@](O)(C(=O)CO)C[C@@H]3O[C@H]1C[C@H](N)[C@H](O)[C@H](C)O1.Cl [DOXORUBICIN HYDROCHLORIDE]
GI50 [23]: < 80 µg/mL

Cc1cccc(N(c2cccc(Cl)c2)c2c3ccccc3nc3scnc23)c1
IC50 [13]: 5690 nM
IC50 [14]: 5690 nM

Cc1c(C(=O)Nc2ccccc2)s/c(=N\NC(=O)c2cnc(-c3ccccc3)s2)n1-c1ccccc1
IC50 [4]: 1.98 µg/mL

Cc1nc(C(Cl)(Cl)S(=O)(=O)c2ccccc2)c([N+](=O)[O-])s1
CC50 [1]: < 2500 nM

COc1ccc(/C=C(/C#N)c2nc(-c3cc4ccccc4oc3=O)cs2)cc1
IC50 [24]: 2330 nM

C=C(NC(=O)C(=C)NC(=O)c1ccc2c(n1)-c1coc(n1)C(=O)NC(=O)CNC(=O)c1coc(n1)C(=C)NC(=O)[C@H](C(C)(C)O)NC(=O)C(=O)NC(=O)c1nc(oc1C)/C(=C\C)NC[C@H](C(C)C)NC(=O)c1csc-2n1)C(N)=O
IC50 [1]: 1300 nM
IC50 [15]: 990 nM
IC50 [16]: 750 nM
IC50 [17]: 1040 nM
IC50 [18]: 880 nM
IC50 [19]: 2430 nM
IC50 [20]: 990 nM

Cc1ccc(-c2nc(C(=O)Nc3ccc([N+](=O)[O-])cc3)cs2)cc1
IC50 [21]: 10800 nM
IC50 [4]: 10800 nM

CC1=C(C(=O)Nc2nc(-c3ccccc3)cs2)C(c2ccc([N+](=O)[O-])cc2)C(C(=O)Nc2nc(-c3ccccc3)cs2)=C(C)N1
IC50 [23]: 3 nM

Nc1nc(-c2ccc(Oc3ccc(Cl)c(Cl)c3)cc2)cs1
IC50 [25]: 759 nM
